Measurements as given in patent US20230339939A1 (Bayer Aktiengesellschaft, priority 2020, published 2023).
Read-outs that look alike come from different tables or passages of the source.

Legend:
Format in all cases: biochemical
CSNK1A1 [1] = biological target: T1, CSNK1A1 (Homo sapiens (Human), UniProt P48729); assay: CSNK1A1 Assay 2 (ADP-Glo, 1 μM ATP, substrate biotin-Ahx-KRRRAL-pS-VASLPGL); settings: median, read-out: CSNK1A1 Assay 2 IC50 [mol/l] (median)
Protocol: CSNK1A1-inhibitory activity of compounds of the present invention in presence of 1 μM adenosine-tri-phosphate (ATP) was quantified employing the CSNK1A1 assay as described in the following paragraphs. In essence, the enzyme activity is measured by quantification of the adenosine-di-phosphate (ADP), which is generated as a co-product of the enzyme reaction, via the “ADP-Glo™ Kinase Assay” kit from the company Promega. This detection system works as follows: In a first step the ATP not consumed in the kinase reaction is quantitatively converted to cAMP employing an adenylate cyclase (“ADP-Glo-reagent”), then the adenylate cyclase is stopped and the ADP generated in the kinase reaction converted to ATP which generates in a luciferase-based reaction a glow-luminescence signal (“Kinase Detection Reagent”).
(§1) Recombinant fusion protein of N-terminal Glutathion-S-Transferase (GST) and full-length human CSNK1A1, expressed by baculovirus infected insect cells and purified via Glutathion affinity chromatography, was purchased from Life Technologies (product no. PV4174) and used as enzyme. As substrate for the kinase reaction the biotinylated peptide biotin-Ahx-KRRRAL-pS-VASLPGL (C-terminus in amide form) was used which can be purchased e.g. from the company Biosyntan (Berlin-Buch, Germany).
For the assay 50 nl of a 100 fold concentrated solution of the test compound in DMSO was pipetted into a white 1536-well microtiter plate (Greiner Bio-One, Frickenhausen, Germany), 2 μL of a solution of CSNK1A1 in aqueous assay buffer [50 mM HEPES pH 7.5, 10% (v/v) glycerol, 10 mM MgCl2, 50 mM NaCl, 1 mM dithiothreitol, 0.01% (w/v) bovine serum albumin, 0.01% (v/v) Triton X-100] were added and the mixture was incubated for 15 min at 22° C. to allow pre-binding of the test compounds to the enzyme before the start of the kinase reaction. […] The concentration of CSNK1A1 was adjusted depending of the activity of the enzyme lot and was chosen appropriate to have the assay in the linear range, a typical concentrations are about 0.0375 ng/μL. The reaction was stopped by the addition of 2.5 μL of “ADP-Glo-reagent” (1:1.5 fold diluted with water) and the resulting mixture was incubated at 22° C. for 1 h to convert the ATP not consumed in the kinase reaction completely […]. Subsequently 2.5 μL of the “kinase detection reagent” (1.2 fold more concentrated than recommended by the producer) were added, the resulting mixture was incubated at 22° C. for 1 h and then the luminescence measured with a suitable measurement instrument (e.g. Viewlux™ from Perkin-Elmer). The amount of emitted light was taken as a measure for the amount of ADP generated and thereby for the activity of the CSNK1A1.

CSNK1A1 [2] = biological target: T1, CSNK1A1; assay: CSNK1A1 High ATP Assay (ADP-Glo, 1 mM ATP); settings: median, read-out: CSNK1A1 high ATP assay IC50 [mol/l] (median)
Protocol: CSNK1A1-inhibitory activity of compounds of the present invention in presence of 1 mM adenosine-tri-phosphate (ATP) was quantified employing the CSNK1A1-high-ATP-assay as described in the following paragraphs. In essence, the enzyme activity is measured by quantification of the adenosine-di-phosphate (ADP), which is generated as a co-product of the enzyme reaction, via the “ADP-Glo™ Kinase Assay” kit from the company Promega. This detection system works as follows: In a first step the ATP not consumed in the kinase reaction is quantitatively converted to cAMP employing an adenylate cyclase (“ADP-Glo-reagent”), then the adenylate cyclase is stopped and the ADP generated in the kinase reaction converted to ATP which generates in a luciferase-based reaction a glow-luminescence signal (“Kinase Detection Reagent”).
as §1
For the assay 50 nl of a 100 fold concentrated solution of the test compound in DMSO was pipetted into a white low volume 384-well microtiter plate (Greiner Bio-One, Frickenhausen, Germany), 2 μL of a solution of CSNK1A1 in aqueous assay buffer [50 mM HEPES pH 7.5, 10% (v/v) glycerol, 10 mM MgCl2, 50 mM NaCl, 1 mM dithiothreitol, 0.01% (w/v) bovine serum albumin, 0.01% (v/v) Triton X-100] were added and the mixture was incubated for 15 min at 22° C. to allow pre-binding of the test compounds to the enzyme before the start of the kinase reaction. […] The concentration of CSNK1A1 was adjusted depending of the activity of the enzyme lot and was chosen appropriate to have the assay in the linear range, a typical concentration is about 0.4 ng/μL. The reaction was stopped by the addition of 2.5 μL of “ADP-Glo-reagent” (1:1.5 fold diluted with water) and the resulting mixture was incubated at 22° C. for 1 h to convert the ATP not consumed in the kinase reaction completely […]. Subsequently 2.5 μL of the “kinase detection reagent” (1.2 fold more concentrated than recommended by the producer) were added, the resulting mixture was incubated at 22° C. for 1 h and then the luminescence measured with a suitable measurement instrument (e.g. Viewlux™ from Perkin-Elmer). The amount of emitted light was taken as a measure for the amount of ADP generated and thereby for the activity of the CSNK1A1.

[3] = biological target: wild-type Epidermal Growth Factor Receptor (EGFR) (Homo sapiens (Human), UniProt P00533); assay: WT-EGFR Kinase Assay (TR-FRET, 2 mM ATP)
From the text: Inhibitory activity of compounds of the present invention against wild-type Epidermal Growth Factor Receptor (EGFR) was quantified employing the TR-FRET based EGFR assay as described in the following paragraphs.
Recombinant fusion protein of N-terminal Glutathion-S-Transferase (GST) and a fragment of human EGFR (amino acids R669 to A1210), expressed in Sf9 insect cells and purified via affinity chromatography using Glutathion Sepharose as described above, was used as kinase. As substrate for the kinase reaction the biotinylated peptide biotin-Ahx-[…] (C-terminus in amide form) was used which can be purchased e.g. form the company Biosynthan GmbH (Berlin-Buch, Germany).
For the assay 50 nl of a 100 fold concentrated solution of the test compound in DMSO was pipetted into either a black low volume 384 well microtiter plate or a black 1536 well microtiter plate (both Greiner Bio-One, Frickenhausen, Germany), 2 μL of a solution of EGFR in aqueous assay buffer [50 mM Hepes pH 7.0, 10 mM MgCl2, 1 mM dithiothreitol, 0.5 mM EGTA, 0.3 mM activated sodium ortho-vanadate, 0.005% (w/v) bovine serum albumin, 0.005% (v/v) Tween-20] were added and the mixture was incubated for 15 min at 22° C. to allow pre-binding of the test compounds to the enzyme before the start of the kinase reaction. […] The concentration of EGFR was adjusted depending of the activity of the enzyme lot and was chosen appropriate to have the assay in the linear range, typical concentration was 7.6 pg/μL. The reaction was stopped by the addition of 3 μL of a solution of HTRF detection reagents (83.3 nM streptavidine-XL665 [Cisbio Bioassays, Codolet, France] and 1.67 nM PT66-Tb-Cryptate, a terbium-cryptate labelled anti-phospho-tyrosine antibody from Cisbio Bioassays [instead of the PT66-Tb-cryptate PT66-Eu-Chelate from Perkin Elmer can also be used]) in an aqueous EDTA-solution (133.3 mM EDTA, 0.2% (w/v) bovine serum albumin in 50 mM HEPES pH 7.5).
The resulting mixture was incubated 1 h at 22° C. to allow the binding of the biotinylated phosphorylated peptide to the streptavidine-XL665 and the PT66-Tb-Cryptate. Subsequently the amount of phosphorylated substrate was evaluated by measurement of the resonance energy transfer from the PT66-Tb-Cryptate to the streptavidine-XL665. Therefore, the fluorescence emissions at 620 nm and 665 nm after excitation at 337 nm were measured in a HTRF reader, e.g. a Pherastar (BMG Labtechnologies, Offenburg, Germany) or a Viewlux (Perkin-Elmer). The ratio of the emissions at 665 nm and at 622 nm was taken as the measure for the amount of phosphorylated substrate.

CSNK1D = CSNK1D (Homo sapiens (Human), UniProt P48730); assay: CSNK1D Assay (ADP-Glo, 1 μM ATP); settings: median, read-out: CSNK1D IC50 [mol/l] (median)
Protocol: CSNK1D-inhibitory activity of compounds of the present invention in presence of 1 μM adenosine-tri-phosphate (ATP) was quantified employing the CSNK1 D assay as described in the following paragraphs. In essence, the enzyme activity is measured by quantification of the adenosine-di-phosphate (ADP), which is generated as a co-product of the enzyme reaction, via the “ADP-Glo™ Kinase Assay” kit from the company Promega. This detection system works as follows: In a first step the ATP not consumed in the kinase reaction is quantitatively converted to cAMP employing an adenylate cyclase (“ADP-Glo-reagent”), then the adenylate cyclase is stopped and the ADP generated in the kinase reaction converted to ATP which generates in a luciferase-based reaction a glow-luminescence signal (“Kinase Detection Reagent”).
as §1, with “CSNK1D,” for “CSNK1A1,”, “PV3665)” for “PV4174)”, “Btn-Ahx-[…]” for “biotin-Ahx-KRRRAL-pS-VASLPGL”
For the assay 50 nl of a 100 fold concentrated solution of the test compound in DMSO was pipetted into a white 1536-well microtiter plate (Greiner Bio-One, Frickenhausen, Germany), 2 μL of a solution of CSNK1D in aqueous assay buffer [50 mM HEPES pH 7.5, 10% (v/v) glycerol, 10 mM MgCl2, 50 mM NaCl, 1 mM dithiothreitol, 0.01% (w/v) bovine serum albumin, 0.01% (v/v) Triton X-100] were added and the mixture was incubated for 15 min at 22° C. to allow pre-binding of the test compounds to the enzyme before the start of the kinase reaction. […] The concentration of CSNK1D was adjusted depending of the activity of the enzyme lot and was chosen appropriate to have the assay in the linear range, a typical concentration is about 0.5 ng/μL. The reaction was stopped by the addition of 2.5 μL of “ADP-Glo-reagent” (1:1.5 fold diluted with water) and the resulting mixture was incubated at 22° C. for 1 h to convert the ATP not consumed in the kinase reaction completely […]. Subsequently 2.5 μL of the “kinase detection reagent” (1.2 fold more concentrated than recommended by the producer) were added, the resulting mixture was incubated at 22° C. for 1 h and then the luminescence measured with a suitable measurement instrument (e.g. Viewlux™ from Perkin-Elmer). The amount of emitted light was taken as a measure for the amount of ADP generated and thereby for the activity of the CSNK1D.

[4] = read-out: EGFR Wildtype 2 mM ATP IC50 [mol/l] (median)

Chain of wild-type Epidermal Growth Factor Receptor (EGFR) (P00533 669-1210): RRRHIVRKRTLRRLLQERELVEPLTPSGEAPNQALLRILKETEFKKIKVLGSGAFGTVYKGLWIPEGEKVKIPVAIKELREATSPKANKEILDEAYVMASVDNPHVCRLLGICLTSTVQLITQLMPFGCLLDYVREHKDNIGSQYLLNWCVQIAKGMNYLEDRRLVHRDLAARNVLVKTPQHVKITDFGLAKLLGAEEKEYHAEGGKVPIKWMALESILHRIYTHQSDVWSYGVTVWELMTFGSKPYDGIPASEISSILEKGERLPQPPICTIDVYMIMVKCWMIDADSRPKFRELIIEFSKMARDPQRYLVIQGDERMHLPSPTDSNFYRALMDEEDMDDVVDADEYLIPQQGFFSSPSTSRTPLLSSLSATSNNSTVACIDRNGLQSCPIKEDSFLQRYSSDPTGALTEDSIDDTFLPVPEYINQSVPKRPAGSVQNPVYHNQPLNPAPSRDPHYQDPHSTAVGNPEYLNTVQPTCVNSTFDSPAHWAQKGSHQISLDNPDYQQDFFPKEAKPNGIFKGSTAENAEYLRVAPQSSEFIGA
T1 sequence (P48729 whole entry): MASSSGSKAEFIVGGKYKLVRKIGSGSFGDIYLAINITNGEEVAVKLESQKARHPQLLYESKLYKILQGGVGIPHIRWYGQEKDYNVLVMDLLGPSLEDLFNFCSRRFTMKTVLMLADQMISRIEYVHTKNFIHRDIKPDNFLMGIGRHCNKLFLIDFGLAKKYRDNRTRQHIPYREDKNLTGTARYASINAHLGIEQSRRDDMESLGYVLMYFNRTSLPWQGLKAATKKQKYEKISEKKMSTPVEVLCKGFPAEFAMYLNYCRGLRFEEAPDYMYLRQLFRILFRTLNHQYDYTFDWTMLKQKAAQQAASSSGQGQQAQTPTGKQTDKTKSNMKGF
Chain of CSNK1D (P48730 whole entry): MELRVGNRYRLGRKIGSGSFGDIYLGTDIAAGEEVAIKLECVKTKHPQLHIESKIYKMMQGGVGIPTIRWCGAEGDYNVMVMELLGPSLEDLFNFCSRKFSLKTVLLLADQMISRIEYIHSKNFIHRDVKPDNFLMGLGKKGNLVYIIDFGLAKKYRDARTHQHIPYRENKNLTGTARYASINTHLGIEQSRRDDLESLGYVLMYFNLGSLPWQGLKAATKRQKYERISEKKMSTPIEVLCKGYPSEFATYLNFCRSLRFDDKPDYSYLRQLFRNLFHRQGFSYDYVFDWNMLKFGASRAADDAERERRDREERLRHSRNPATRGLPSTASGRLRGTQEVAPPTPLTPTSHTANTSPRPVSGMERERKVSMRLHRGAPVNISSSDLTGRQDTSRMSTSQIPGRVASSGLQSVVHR

| SMILES | IC50 (CSNK1A1 [1]) | IC50 (CSNK1A1 [2]) | IC50 [3, 4] | IC50 (CSNK1D) | IC50 ([3]; median) |
| --- | --- | --- | --- | --- | --- |
| CC(C(=O)Nc1cc(-c2[nH]c3cccnc3c2-c2ccccc2)ccn1)c1ccc(F)cc1 (single isomer, unassigned; (+)) [Example 13, (+)-2-(4-fluorophenyl)-N-[4-(3-phenyl-1H-pyrrolo[3,2-b]pyridin-2-yl)pyridin-2-yl]propanamide] | 1.66 nM | 91.6 nM | > 20000 nM | – | – |
| CC(C(=O)Nc1cc(-c2[nH]c3ccc(F)nc3c2-c2ccc(F)cn2)ccn1)c1ccc(F)cc1 (single isomer, unassigned; (+)) [Example 48, (+)-N-{4-[5-fluoro-3-(5-fluoropyridin-2-yl)-1H-pyrrolo[3,2-b]pyridin-2-yl]pyridin-2-yl}-2-(4-fluorophenyl)propanamide] | 1.69 nM | 36.1 nM | – | 3.96 nM | – |
| CC(C(=O)Nc1cc(-c2[nH]c3cccnc3c2-c2ccccc2)ccn1)c1ccc(F)cc1 (single isomer, unassigned; (-)) [Example 12, (−)-2-(4-fluorophenyl)-N-[4-(3-phenyl-1H-pyrrolo[3,2-b]pyridin-2-yl)pyridin-2-yl]propanamide] | 37 nM | 2510 nM | – | – | > 20000 nM |
| CC(C(=O)Nc1cc(-c2[nH]c3ccc(F)nc3c2-c2ccc(F)cn2)ccn1)c1ccc(F)cc1 (single isomer, unassigned; (-)) [Example 49, (−)-N-{4-[5-fluoro-3-(5-fluoropyridin-2-yl)-1H-pyrrolo[3,2-b]pyridin-2-yl]pyridin-2-yl}-2-(4-fluorophenyl)propanamide] | 34.5 nM | 2580 nM | – | 33.1 nM | – |
| O=C(Cc1ccc(F)cc1)Nc1cc(-c2[nH]c3nccnc3c2-c2ccccc2)ccn1 [Example 18, 2-(4-fluorophenyl)-N-[4-(7-phenyl-5H-pyrrolo[2,3-b]pyrazin-6-yl)pyridin-2-yl]acetamide] | 3.33 nM | 260 nM | > 20000 nM | – | – |
| O=C(Cc1ccc(F)cc1)Nc1cc(-c2[nH]c3nccnc3c2-c2ccccn2)ccn1 [Example 19, 2-(4-fluorophenyl)-N-{4-[7-(pyridin-2-yl)-5H-pyrrolo[2,3-b]pyrazin-6-yl]pyridin-2-yl}acetamide] | 1.02 nM | 33.1 nM | > 20000 nM | – | – |
| O=C(Cc1ccc(F)cc1)Nc1cc(-c2[nH]c3ccnnc3c2-c2ccccc2)ccn1 [Example 20, 2-(4-fluorophenyl)-N-[4-(7-phenyl-5H-pyrrolo[3,2-c]pyridazin-6-yl)pyridin-2-yl]acetamide] | 1.3 nM | 77.9 nM | > 20000 nM | – | – |
| O=C(Cc1ccc(F)cc1)Nc1cc(-c2[nH]c3ccc(F)nc3c2-c2ccc(F)cn2)ccn1 [Example 50, N-{4-[5-fluoro-3-(5-fluoropyridin-2-yl)-1H-pyrrolo[3,2-b]pyridin-2-yl]pyridin-2-yl}-2-(4-fluorophenyl)acetamide] | 1.42 nM | 41.6 nM | – | 3.15 nM | – |
